No end group written: not given here.
Experiments:
HIV-1IIIB = experiment: HIV-1 antiviral assay in CEM-SS cells; conditions: HIV-1 assay
HCMV strain AD169 = experiment: HCMV plaque formation assay in MRC-5 cells; format: cell-based; conditions: for inhibition of HCMV plaque formation as compared to the virus control experiment: 10 micrograms per ml, 7-10 days
[1] = system: Primary Human endothelial cells (HUVEC); experiment: Endothelial cell migration assay; format: cell-based; conditions: 10 micrograms per ml; 22 hours
Human A549 cells [2] = experiment: Apoptosis prevention assay (C2 ceramide, Annexin-5); format: cell-based; conditions: 10 micrograms per ml; 30 min pretreatment, then C2 ceramide
Protocol: Human A549 cells (carcinomic human alveolar basal epithelial cells) were utilized in the experiments employing the Annexin-5 apoptosis assay. […] A549 cells were pretreated for 30 min with test peptides—10 micrograms per ml—followed by the exposure to C2 ceramide.

HUVEC = experiment: Endothelial tube formation assay; format: cell-based, human; conditions: 10 micrograms per ml; 20 hours
Text: Positive control was vehicle only.

[3] = system: hepatitis B virus (HBV) ayw strain; experiment: HBV experimental assay system (HepG2-2.2.15, TaqMan PCR of secreted HBV DNA); format: cell-based; conditions: 10 micrograms per ml; six days; HBV DNA in supernatant
Human A549 cells [4] = experiment: Apoptosis induction assay (Annexin-5); format: cell-based; conditions: 10 micrograms per ml; 24 hours
murine spleen cells = experiment: Th1/Th2 cytokine profiling assay (Ovalbumin-restimulated spleen cells); format: cell-based, Balb/c mice; conditions: 10 micrograms per ml; Ovalbumin restimulation, 72 hours
Text: The Balb/c mice (originated in 1923, it is a popular strain and is used in many different research disciplines. Also classified as an inbred from the production of 20 or more successive brother-sister matings, the Balb/c mouse is albino and small in size) were immunized on Days 1, 15, and 29 with Ovalbumin (Ovalbumin is the main protein found in egg white, commonly used to stimulate an immunological reaction in test animals) in PBS (5 micrograms/injection). On day 50, spleens of the mice were harvested (3 weeks after last boost with Ovalbumin). […] Thereafter, additional Ovalbumin was added to the cells at 10 micrograms/ml for in vitro restimulation of the cells. 72 hours later, cell supernatants were harvested and assayed using the Becton Dickinson Mouse Th1/Th2 Cytokine CBA Kit.

Compound | antiviral activity of positive control compounds (HIV-1IIIB) | inhibition of HCMV plaque formation as compared to the virus control experiment (HCMV strain AD169) [%] | tube formation of human endothelial cells, inhibited by (HUVEC) [%] | inhibition of HBV replication as compared to the virus control infection [3] [%] | induction of apoptosis on human lung cells (Human A549 cells [4]) [%] | production of IL-2, induced by (murine spleen cells) [%] | production of IL-4, induced by (murine spleen cells) | production of IL-5, decreased by (murine spleen cells) | production of TNF-alpha, induced by (murine spleen cells) | further results
Cc1cn([C@H]2C[C@H](N=[N+]=[N-])[C@@H](CO)O2)c(=O)[nH]c1=O [AZT] | expected levels of antiviral activity |  |  |  |  |  |  |  |  | 
Nc1nc(O)c2ncn(COC(CO)CO)c2n1 [Ganciclovir, reference compound] |  |  |  |  |  |  |  |  |  | antiviral activity of positive control compound (HCMV strain AD169; positive control, HCMV assay): expected levels of antiviral activity
CC(C)(C)NC(=O)[C@@H]1CN(Cc2cccnc2)CCN1C[C@@H](O)C[C@@H](Cc1ccccc1)C(=O)N[C@H]1c2ccccc2C[C@H]1O [indinavir] | expected levels of antiviral activity |  |  |  |  |  |  |  |  | 
Ala-Gly-Cys-Lys-Asn-Phe-Phe-Trp-Lys-Thr-Phe-Thr-Ser-Cys-OH (AGCKNFFWKTFTSC-OH; ends and bridges not checked) [Peptide 1] |  | 1.8 | 9 | 14.1 | 9.4 | 102.7 | did not significantly change | did not significantly change | 27.5% | migration of human endothelial cells, inhibited by [1]: 3%; induction of apoptosis on human lung cells (ceramide-induced apoptosis) (Human A549 cells [2]): 27%; production of IFN-gamma, induced by (murine spleen cells): 65.1%
Gly-Pro-Glu-OH [Peptide 2] |  | 2.9 | 20 | 30.7 | 1.4 | 24.0 | 52.7% | 37.2% | did not significantly change | migration of human endothelial cells, induced by [1]: 11%; production of IFN-gamma, decreased by (murine spleen cells): 42.5%

Source: US8211856B2, “Use of somatostatin-14 as a therapeutic agent” (mondoBIOTECH Laboratories AG, priority 2007, dated 2012)
